Test results published in patent US9029593B2, “Method for manufacturing spilanthol and intermediate manufacturing product therefor” (Takasago International Corporation, priority 2009, dated 2015).
Entries after “also recorded” stand apart in the source; their conditions may differ.

Experiments:
[1] = Thermal stability evaluation of crude product at 180° C. (GC, hexadecane internal standard); type: physicochemical; conditions: crude product before distillation, stirring at 180° C. in a stream of nitrogen, after 3 hours, GC area ratio vs hexadecane
Experimental: The crude product of N-isobutyl-2,6,8-decatrienamide obtained in Example 2 before the distillation and the crude product obtained in Comparative Example 1 were compared as follows in terms of thermal stability at 180° C. assuming distillation at high temperature.
In a stream of nitrogen, 1 g of each of the crude products was put into a flask together with 0.1 g of hexadecane as an internal standard substance, followed by stirring at 180° C. for […]. By gas chromatography, the area ratio of N-isobutyl-2,6,8-decatrienamide was compared with the area ratio of the internal standard substance to measure the remaining percentage of N-isobutyl-2,6,8-decatrienamide.

[2] = Sensory evaluation of aqueous solutions containing 10 ppm of N-isobutyl-2,6,8-decatrienamide; type: in vivo; conditions: aqueous solution containing 10 ppm
Experimental: The sensory evaluation was performed using aqueous solutions respectively containing 10 ppm of N-isobutyl-2,6,8-decatrienamide obtained in Example 2 and Comparative Example 1.

Row | remaining percentage of N-isobutyl-2,6,8-decatrienamide [1] | SMILES | Sensory evaluation (numbing and astringent actions) [2]
1 | 89% | CC=CC=CCCC=CC(=O)NCC(C)C [Comparative Example 1, N-isobutyl-2,6,8-decatrienamide, reference compound] | 
2 | 98% | CC=CC=CCC/C=C/C(=O)NCC(C)C (racemic) [Example 2, N-isobutyl-2,6,8-decatrienamide] | excellent numbing and astringent actions; also recorded: clear and strong
